In US20250257064A1, “TRIFLUOROMETHYL-SUBSTITUTED SULFONAMIDE AS BCL-2-SELECTIVE INHIBITOR” (Chia Tai Tianqing Pharmaceutical Group Co., Ltd., priority 2018, published 2025):

What was measured:
[1] = biological target: T1, BCL-2/BAK (Homo sapiens, UniProt P10415); assay: Screening on inhibitory activity for BCL-2/BAK binding (Cisbio HTRF kit)
T1 construct: purchased Cisbio
Summary of the method: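 HTRF competition assay: Tag1-BCL-2 and Tag2-BAK working dilutions were 5 nM and 120 nM. Compound (200–0.0488 nM final, 4-fold, 7 points, duplicates) was incubated with the proteins for 15 min at 25 °C, then with Eu-cryptate/XL665 antibodies for ≥2 h at 25 °C. IC50 was derived from a four-parameter fit.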

[2] = biological target: T2, BCL-XL/BAK (Homo sapiens, UniProt Q07817); assay: Screening on inhibitory activity for BCL-XL/BAK binding (Cisbio HTRF kit)
T2 construct: purchased Cisbio
T2 sequence (Q07817 whole entry, species assumed): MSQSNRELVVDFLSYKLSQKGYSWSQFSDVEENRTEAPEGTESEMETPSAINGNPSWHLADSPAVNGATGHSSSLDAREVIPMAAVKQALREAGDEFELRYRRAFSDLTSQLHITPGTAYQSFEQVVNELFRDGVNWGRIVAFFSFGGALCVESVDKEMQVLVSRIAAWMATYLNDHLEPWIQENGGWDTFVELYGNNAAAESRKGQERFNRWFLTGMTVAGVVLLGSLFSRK
Summary of the method: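 Tag1-BCL-XL and Tag2-BAK (2 nM and 80 nM before mixing) were combined with compounds at final 2000–0.488 nM (4-fold, 7 points, duplicates) for 15 min at 25° C. Eu3+ anti-Tag1 and XL665 anti-Tag2 were then added for ≥2 h at 25° C. HTRF (620/665 nm) gave IC50 by four-parameter fit.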

[3] = test system: RS4;11 cells; assay: Inhibitory effect on proliferation of RS4;11 cells (CCK-8); assay type: cell-based, human; details: Homo sapiens, RS4-11, 72 h
Summary of the method: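 RS4;11 cells were seeded at 1×10^5 cells/mL in RPMI with 5% FBS and incubated 24 h at 37° C, 5% CO2 before compound addition in duplicate. Inhibition was calculated against untreated and blank controls. IC50 came from a four-parameter fit of log concentration versus inhibition.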

[4] = In vitro stability in mouse liver microsomes; assay type: in vitro ADME; details: 1 μM
Protocol: (§1) Experimental Example 3: In Vitro Stability in Liver Microsome
(§2) 300 μL of the final incubation system contains 30 μL of liver microsomes (protein concentration: 5 mg/mL), 30 μL of NADPH+MgCl2, 3 μL of the test compound (in acetonitrile), and 237 μL of PBS buffer (pH 7.4), wherein the proportion of the organic solvent (acetonitrile) is 1% (volume ratio). Two duplicate samples were prepared for each specie (mouse, rat and human), and each sample was 0.3 mL. Each tube which was added with 270 μL of a mixed solution of substrate and enzyme, and NADPH, after being pre-incubated at 37° C. for 5 min, was added with 30 μL of NADPH+MgCl2 and mixed. Then 50 μL of the mixture was taken at 0 min, 15 min, 30 min and 60 min, and added with 300 μL of glacial acetonitrile containing an internal standard to terminate the reaction.
(§3) 50 μL of the incubated sample was added with 300 μL of glacial acetonitrile containing an internal standard (20 ng/mL diazepam) for precipitation, vortexed for 5 min, and centrifuged (13,000 rpm, 20° C.) for 10 min. 70 μL of supernatant was taken and diluted with 70 μL of ultrapure water. After being mixed well, 1 μL of the resulting sample was injected for analysis.

[5] = In vitro stability in rat liver microsomes; assay type: in vitro ADME; details: 1 μM
Protocol: as §1, §2, §3

[6] = In vitro stability in human liver microsomes; assay type: in vitro ADME; details: 1 μM
Protocol: as §1, §2, §3

[7] = test system: human platelet Caspase-3 activity; assay: Human platelet toxicity experiment (Caspase-3 activity assay); assay type: cell-based; details: 90 min, data normalized, reference ABT-199
Protocol: Experimental Example 6: Human Platelet Toxicity Experiment (Caspase-3 Activity Assay)
10 mL of human whole blood was collected using a heparin sodium anticoagulation tube, mixed well by turning upside down, and centrifuged at 90 g for 10 min. The supernatant was collected and centrifuged at 1950 g for 10 min. The supernatant was discarded, and the residue was resuspended in 4 mL of PBS, and centrifuged at 1190 g for 5 min, and the procedure was repeated once. The supernatant was discarded, and the platelets were resuspended in PBS and adjusted to the density of 2-3×10^8 cells/mL. Cells were seeded into a 96-well plate at a density of 2-3×10^7 cells/mL and at 100 μL/well. 50 μL of control buffer was added to each negative control well, and 50 μL of compound at a corresponding concentration was added to each compound well, so that the final concentration of the compound was 2.5 μM, 2 μM, 1 μM or 0.5 μM, followed by incubation in an incubator at 37° C. for 90 min. The liquids in the 96-well plate were transferred to 1.5 mL centrifuge tubes, respectively. The tubes were centrifuged at 4° C. and 6000 g for 5 min, and placed on ice for later use after the supernatant was discarded. 5× lysis buffer was diluted into 1× lysis buffer with water in the kit, and protease inhibitor cocktail was added at a 1:200 ratio to prepare a lysis mixture for later use. 40 μL of lysis mixture was added to each centrifuge tube, and the platelets at the bottom were resuspended using a pipette. The suspension was lysed on ice for 15-20 min and centrifuged at 4° C. and 14,000 g for 10 min. The sample was sub-packaged for later use. 10× assay buffer was diluted into 1× assay buffer with water in the kit, and substrate Ac-DEVD-AMC was added at a 1:600 ratio to prepare a reaction mixture. 5 μL of assay buffer and 40 μL of reaction mixture were added to each blank control well. 5 μL of control platelet lysate and 40 μL of reaction mixture were added to each negative control well. 5 μL of platelet lysate and 40 μL of reaction mixture were added to each compound well. In this procedure, 40 μL of reaction mixture was added at last. The resulting mixture was mixed gently, and the plate was read by a PE Envision multi-functional microplate reader (excitation: 360 nm, emission: 460 nm) once every 10 min for 6 times. Caspase-3 activity was determined based on the intensity of the released AMC fluorescence, that is the slope of the fitted line to which each well corresponds represents Caspase activity (all data were normalized and the reference was ABT-199).

T1 sequence (P10415 whole entry, species assumed): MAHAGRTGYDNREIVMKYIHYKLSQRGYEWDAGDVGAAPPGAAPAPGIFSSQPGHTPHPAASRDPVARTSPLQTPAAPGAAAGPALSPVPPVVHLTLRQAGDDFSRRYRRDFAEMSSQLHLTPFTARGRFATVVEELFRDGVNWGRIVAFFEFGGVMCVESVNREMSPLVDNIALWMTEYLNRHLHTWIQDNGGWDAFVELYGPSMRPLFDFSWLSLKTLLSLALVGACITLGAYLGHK

## CC1(C)CCC(CN2CCN(c3ccc(C(=O)NS(=O)(=O)c4ccc(NCC5CCOCC5)c([N+](=O)[O-])c4)c(Oc4cnc5[nH]ccc5c4)c3)CC2)=C(c2ccc(C(F)(F)F)c(F)c2)C1 [Compound 6-1, 4-(4-{[2-(3-fluoro-4-trifluoromethylphenyl)-4,4-dimethylcyclohex-1-enyl]methyl}-piperazin-1-yl)-N-({3-nitro-4-[(tetrahydro-2H-pyran-4-ylmethyl)amino]phenyl}sulfonyl)-2-(1H-pyrrolo[2,3-b]pyridin-5-yloxy)-benzamide]
[1]
  IC50: 5.7 nM
[2]
  IC50: 1970 nM
[3]
  IC50: 2.4 nM
[4]
  Mouse Residual content after 60 min (%): 65.3%
[5]
  Rat Residual content after 60 min (%): 61.2%
[6]
  Human Residual content after 60 min (%): 65.9%
[7]; compound concentration 1 μM
  human platelet Caspase-3 activity, Slope: 0.45

## COCC(=O)N1CCO[C@H](CNc2ccc(S(=O)(=O)NC(=O)c3ccc(N4CCN(CC5=C(c6ccc(C(F)(F)F)cc6Cl)CC(C)(C)CC5)CC4)cc3Oc3cnc4[nH]ccc4c3)cc2[N+](=O)[O-])C1 [Compound 11-1]
[1]
  IC50: 1.6 nM
[2]
  IC50: 140 nM
[3]
  IC50: 2.5 nM
[4]
  Mouse Residual content after 60 min (%): 62.9%
[5]
  Rat Residual content after 60 min (%): 66.3%
[6]
  Human Residual content after 60 min (%): 67.4%
[7]; compound concentration 0.5 μM
  human platelet Caspase-3 activity, Slope: 0.42
[7]; compound concentration 2 μM
  human platelet Caspase-3 activity, Slope: 0.57

## CC1(C)CCC(CN2CCN(c3ccc(C(=O)NS(=O)(=O)c4ccc(NCC5CN(S(C)(=O)=O)CCO5)c([N+](=O)[O-])c4)c(Oc4cnc5[nH]ccc5c4)c3)CC2)=C(c2ccc(C(F)(F)F)cc2Cl)C1 (centres unmarked) [Compound 12-1, 4-(4-{[2-(2-chloro-4-trifluoromethylphenyl)-4,4-dimethylcyclohex-1-enyl]methyl}-piperazin-1-yl)-N-({3-nitro-4-[((4-methylsulfonylmorpholin-2-yl)methyl)amino]phenyl}sulfonyl)-2-(1H-pyrrolo[2,3-b]pyridin-5-yloxy)-benzamide]
[1]
  IC50: 1.4 nM
[2]
  IC50: 113 nM
[3]
  IC50: 1.7 nM
[4]
  Mouse Residual content after 60 min (%): 93.4%
[5]
  Rat Residual content after 60 min (%): 80.2%
[6]
  Human Residual content after 60 min (%): 91.3%
[7]; compound concentration 0.5 μM
  human platelet Caspase-3 activity, Slope: 0.27
[7]; compound concentration 2 μM
  human platelet Caspase-3 activity, Slope: 0.33
